Laboratory results from patent US20160008777A1, “PHARMACEUTICAL COMPOUNDING KIT” (Novotec Consulting Inc., priority 2014, published 2016).
Where “and” joins values, the source holds several entries; their conditions need not be identical. Equal values may be shown once. Where a name gives a salt, the structure may show the parent alone.

Assay: Content uniformity of the Example 2 lotion: product from ten individual pumps weighed and assayed for content of each drug
Type: physicochemical
Conditions: for average amount contained in a gram of lotion product: per gram of lotion; for assay values, % of label claim / USP Acceptance Value (AV): ten pump samples; for USP Acceptance Value (AV): limit of 15
Protocol: The content uniformity of the lotion was determined by assaying product from ten individual pumps spaced equally over the content of the bottle. After the pump was primed, product from ten pumps was collected by taking product from approximately every tenth pump. The product from each pump was weighed and assayed for content of each drug.

[1] = Example 2 lotion, average ± standard deviation of ten pump samples
[2] = Example 2 lotion, average ± standard deviation of ten pump samples, label claim 20 mg/g
[3] = Example 2 lotion, individual pump samples No. 1-10, label claim 20 mg/g (2.0%)
[4] = Example 2 lotion, individual pump samples No. 1-10, label claim 20 mg/g (2.0%), dihydrochloride

Compound	average amount contained in lotion product, % w/w (Example 2 lotion)	Mupirocin Wt. (mg/g), Average [1]	Mupirocin % Label Claim, Average [2]	Mupirocin % Label Claim [3]	Mupirocin Wt. [3]	average amount contained in a gram of lotion product (Example 2 lotion)	assay values, % of label claim (Example 2 lotion)	USP Acceptance Value (AV) (Example 2 lotion)	Levocitirizine dihydrochloride Wt. (mg/g), Average [1]	Levocitirizine dihydrochloride % Label Claim, Average [2]	Levocitirizine dihydrochloride % Label Claim [4]	Levocitirizine dihydrochloride Wt. [4]	Cyanocobalamin Wt. (Example 2 lotion at maximum strength, individual pump samples No. 1-10, label claim 0.7 mg/g (0.07%))	Cyanocobalamin Wt. (mg/g), Average [1]	Cyanocobalamin % Label Claim, Average (Example 2 lotion, average ± standard deviation of ten pump samples, label claim 0.7 mg/g)	Cyanocobalamin % Label Claim (Example 2 lotion, individual pump samples No. 1-10, label claim 0.7 mg/g (0.07%))
C/C(=C\C(=O)OCCCCCCCCC(=O)O)C[C@@H]1OC[C@H](C[C@@H]2O[C@H]2[C@@H](C)[C@H](C)O)[C@@H](O)[C@H]1O [Mupirocin, mupirocin]	1.93 % w/w	19.32 ± 0.38 mg/g	96.62 ± 1.90%	99.60% and 96.00% (2×) and 96.10% and 95.85% and 98.55% and 95.70% and 92.90% and 98.45% and 97.00%	19.92 mg/g and 19.20 mg/g (2×) and 19.22 mg/g and 19.17 mg/g and 19.71 mg/g and 19.14 mg/g and 18.58 mg/g and 19.69 mg/g and 19.40 mg/g	19.32 mg	90-110%	6.44								
O=C(O)COCCN1CCN([C@H](c2ccccc2)c2ccc(Cl)cc2)CC1 [Levocitirizine dihydrochloride, levocetirizine dihydrochloride]	1.97 % w/w					19.76 mg	90-110%	6.66	19.76 ± 0.55 mg/g	98.79 ± 2.77%	97.15% and 96.00% and 102.10% and 103.90% and 99.90% and 101.10% and 96.80% and 95.80% and 96.75% and 97.75%	19.43 mg/g and 19.32 mg/g and 20.42 mg/g and 20.78 mg/g and 19.98 mg/g and 20.22 mg/g and 19.36 mg/g and 19.16 mg/g and 19.35 mg/g and 19.55 mg/g				
cyanocobalamin	0.07 % w/w					0.697 mg	90-110%	4.45					0.723 mg/g and 0.711 mg/g and 0.694 mg/g and 0.696 mg/g (2×) and 0.682 mg/g (2×) and 0.701 mg/g and 0.684 mg/g and 0.699 mg/g	0.697 ± 0.013 mg/g	99.54 ± 1.86%	103.29% and 101.57% and 99.14% and 99.43% (2×) and 97.43% (2×) and 100.14% and 97.71% and 99.86%
